Where two headings read alike, the source gives them in different places. Residues, ends and D or L forms follow the SMILES beside them. *: point of attachment. Palmitoyl = CCCCCCCCCCCCCCCC(=O)*
Experiments:
[1] = target: T1, Cx43 HCs (B16-BL6 cells endogenously expressing Cx43) (Mus musculus, UniProt P23242); assay: ATP release assay in B16-BL6 cells, hemichannels opened by calcium depletion; format: cell-based, murine
T1 construct: a murine melanoma cell line endogenously expressing Cx43; endogenous in cells; host or cells: B16-BL6 mouse melanoma cells
T1 sequence (P23242 whole entry): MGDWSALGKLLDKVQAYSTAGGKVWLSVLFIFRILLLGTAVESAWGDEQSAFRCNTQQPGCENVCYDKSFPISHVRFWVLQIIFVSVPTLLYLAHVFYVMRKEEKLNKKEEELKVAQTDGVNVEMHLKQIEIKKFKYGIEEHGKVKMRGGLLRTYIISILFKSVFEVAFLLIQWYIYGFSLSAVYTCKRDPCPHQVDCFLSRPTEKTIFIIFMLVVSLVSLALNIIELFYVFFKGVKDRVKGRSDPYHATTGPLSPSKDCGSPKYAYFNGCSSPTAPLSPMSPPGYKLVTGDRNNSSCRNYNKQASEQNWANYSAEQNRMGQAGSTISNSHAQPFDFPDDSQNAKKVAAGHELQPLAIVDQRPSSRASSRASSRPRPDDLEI
Protocol: The inhibitory capacity of the peptides on connexin HC activity was determined in vitro by measuring ATP release triggered by a depletion of extracellular Ca^2+, hereafter called “calcium-free” condition.[60] The assays were performed on B16-BL6 cells, a murine melanoma cell line endogenously expressing Cx43.[61] To measure ATP release, B16-BL6 cells were rinsed with a physiological Hanks' balanced salt solution (HBSS; control) followed by incubation for 5 minutes in HBSS containing the peptides. After rinsing with calcium-free HBSS (Ca-free), the cells were incubated with Ca-free containing the peptides for 30 minutes. Positive and negative control conditions included 30 minute incubation with HBSS, Ca-free without peptides or Ca-free containing 25 μM of the non-selective small-molecule inhibitor Cbx. ATP release in the supernatant was measured by bioluminescence. In order to determine the optimal concentration of peptides to be used in the assays, an initial round of testing was conducted on the control peptides αCT1, Gap27,[62]Gap19 (ref. [15]) and TAT-Gap19 (ref. [15]) as well as Cbx.[63] A doubling of ATP release was observed 30 minutes after the switch to the calcium-free solution, indicating effective Cx43 HC channel opening under these conditions (Fig. 5a and Table S1 ^†). As expected, the nonspecific connexin HC inhibitor Cbx (25 μM) reduced calcium-free-induced ATP release to nearly control conditions. At a high concentration (100 μM), Gap19, Gap27 and αCT1 had minimal to no effect on ATP release while TAT-Gap19 had the opposite effect inducing the release of ATP to a similar extent as the detergent Triton X-100 (1%). This might be due to the presence of the CPP motif, causing some disturbance at the level of the cellular membrane, and correlated with the previous findings on the use of the peptide at high concentrations.[64,65] […]
ATP release assays were performed using previously described methods.[60] […] ATP release under each condition was expressed as the percentage of calcium-free-induced ATP release. […]

[2] = system: parental HeLa cells (no endogenous connexins); assay: ATP release assay in parental HeLa cells (selectivity); format: cell-based, human; conditions: calcium-free conditions, N = 3
Text: (§1) Two cell types were chosen to assess the specificity of the Cx43 analogues. HeLa cells derived from human cervical cancer are the oldest and most commonly used immortalized cells. These cells are so-called communication-incompetent, i.e. known to not endogenously express connexins,[71] while SK-HEP-1 cells, a human liver sinusoid endothelial cell line, are devoid of Cx43 but express a small amount of Cx45.[72] Together with these parental cells, HeLa cells and SK-HEP-1 cells stably transfected with Cx43 were used (HeLa–Cx43 (ref. [73]) and SK-HEP-1–Cx43,[72] respectively). The presence and absence of Cx43 in the different cell lines were confirmed by Western blotting (Fig. 8a). The specificity of the control peptides Gap27, TAT-Gap19, αCT1 as well as the cyclic analogue 11 for Cx43 HCs was assessed through ATP release measurements in these pairs of cells, and is shown in Fig. 8b (and Table S4 ^†) for parental and HeLa–Cx43 cells and in Fig. 8c (and Table S5 ^†) for parental and SK-HEP-1–Cx43 cells. No induction of ATP release was observed when parental HeLa cells were exposed to calcium-free conditions. […] However, a doubling of ATP release was observed when parental SK-HEP-1 cells were exposed to calcium-free conditions, which was attenuated by the treatment with Cbx and all peptides, indicating an effect of the compounds on Cx45 HC. […] Nonetheless, the cardioprotective properties of αCT1 are generally ascribed to its interaction with the Cx43 protein,[23] thus it is reasonable to assume that these properties will be retained by the proteolytically stable 10 peptide.
(§2) ATP release assays were performed using previously described methods.[60] Briefly, B16-BL6 cells, HeLa cells or SK-HEP-1 cells were seeded into 96-well plates and grown until they reached confluence. […] The cells were then washed with calcium-free HBSS and incubated with aforementioned compounds in calcium-free HBSS for 30 minutes. Supernatants were collected and ATP bioluminescence measurements were performed using an ATP bioluminescence kit (Sigma-Aldrich) according to the manufacturer's instructions. ATP release under each condition was expressed as the percentage of calcium-free-induced ATP release. ATP release of cells incubated with HBSS was used as a control for basal ATP release. Triplicates were performed for each independent experiment.

[3] = target: T2, Cx43 HCs (HeLa–Cx43 cells) (Homo sapiens, UniProt P17302); assay: ATP release assay in HeLa–Cx43 transfectants (selectivity); format: cell-based; conditions: for ATP release, mean (Table S4, Fig. 8b), HeLa-Cx43: calcium-free conditions, N = 3
T2 construct: expressed in transfected cells
T2 sequence (P17302 whole entry): as the sequence (P23242 whole entry) above, with E124D, V164I, R243K, T251S, P253A, S257A, P263Q, S341N, A344S, V347L counted along it
Text: as §1, §2

[4] = target: T3, Cx45 HC (parental SK-HEP-1 cells, devoid of Cx43) (Homo sapiens, UniProt P36383); assay: ATP release assay in parental SK-HEP-1 cells (selectivity); format: cell-based; conditions: calcium-free conditions, N = 3
T3 construct: are devoid of Cx43 but express a small amount of Cx45; endogenous in cells; host or cells: parental SK-HEP-1 cells
T3 sequence (P36383 whole entry): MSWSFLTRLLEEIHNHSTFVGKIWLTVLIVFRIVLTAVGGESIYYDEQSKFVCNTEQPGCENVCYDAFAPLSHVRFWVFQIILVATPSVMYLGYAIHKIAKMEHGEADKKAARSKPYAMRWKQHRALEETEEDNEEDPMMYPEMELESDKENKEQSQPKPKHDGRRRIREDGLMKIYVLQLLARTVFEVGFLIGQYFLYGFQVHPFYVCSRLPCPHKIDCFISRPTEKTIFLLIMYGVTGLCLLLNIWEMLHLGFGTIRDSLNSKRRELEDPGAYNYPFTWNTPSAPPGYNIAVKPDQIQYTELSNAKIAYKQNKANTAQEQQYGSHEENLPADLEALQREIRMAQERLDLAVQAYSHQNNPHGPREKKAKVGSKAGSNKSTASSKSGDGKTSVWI
Text: as §1, §2

[5] = system: Cx43 HCs (SK-HEP-1–Cx43 cells); assay: ATP release assay in SK-HEP-1–Cx43 transfectants (selectivity); format: cell-based, human; conditions: calcium-free conditions, N = 3
Text: as §1, §2

Cx43 HC = conditions: cited from earlier work
Protocol: The inhibitory capacity of the peptides on connexin HC activity was determined in vitro by measuring ATP release triggered by a depletion of extracellular Ca^2+, hereafter called “calcium-free” condition.[60] The assays were performed on B16-BL6 cells, a murine melanoma cell line endogenously expressing Cx43.[61] To measure ATP release, B16-BL6 cells were rinsed with a physiological Hanks' balanced salt solution (HBSS; control) followed by incubation for 5 minutes in HBSS containing the peptides. After rinsing with calcium-free HBSS (Ca-free), the cells were incubated with Ca-free containing t ...

physchem = format: physicochemical; conditions: water
cardiac endothelium = conditions: binding to markers on the cell surface of the cardiac endothelium; cited from earlier work
Text: To further increase the therapeutic potential of a drug candidate, targeted delivery to the organ or tissue of interest after systemic treatment is highly desirable. The use of homing peptides, i.e. peptides that selectively bind to markers expressed on the surface of different cell types, can increase the specificity and efficacy of drug delivery, while reducing the side effects linked to off-target interactions. A wide variety of peptides homing to different tissues and pathological conditions has been identified, mostly through phage-display techniques, and used as delivery vehicles for dru ...

[6] = parameters: method as in PMID 34063001; conditions: mouse serum; cited from earlier work
[7] = peptide applied extracellularly, read-out: IC50 on Cx43-mediated ATP release

Row | Compound | ATP release, mean (Table S4, Fig. 8b), Parental HeLa ([2]; peptide 5 μM) [nM] | reduction of calcium-free-induced ATP release in HeLa–Cx43 cells ([3]; peptide 5 μM) | ATP release, mean (Table S4, Fig. 8b), HeLa-Cx43 ([3]; peptide 5 μM) [nM] | ATP release, mean (Table S5, Fig. 8c), Parental SK-HEP-1 ([4]; peptide 5 μM) [nM] | ATP release, mean (Table S5, Fig. 8c), SK-HEP-1-Cx43 ([5]; peptide 5 μM) [nM] | further results
1 | CC1(C)[C@@H](OC(=O)CCC(=O)O)CC[C@]2(C)[C@H]3C(=O)C=C4[C@@H]5C[C@@](C)(C(=O)O)CC[C@]5(C)CC[C@@]4(C)[C@]3(C)CC[C@@H]12 [Cbx, carbenoxolone] |  |  |  |  |  | ATP release, mean normalized to calcium-free condition (Table S2, Fig. 5b) ([1]; Cbx 25 μM, calcium-free 30 min, N = 3–9): 60.4766%; ATP release, mean normalized to calcium-free condition (Table S3, Fig. 6b) ([1]; Cbx 25 μM, calcium-free 30 min, N = 5–10): 78.1965%; ATP release, mean (Table S4, Fig. 8b), Parental HeLa ([2]; Cbx 25 μM): 0.9207 nM; inhibition of calcium-free-induced ATP release in HeLa–Cx43 cells (in words) ([3]; Cbx 25 μM): completely inhibited; ATP release, mean (Table S4, Fig. 8b), HeLa-Cx43 ([3]; Cbx 25 μM): 2.1867 nM; ATP release, mean (Table S5, Fig. 8c), Parental SK-HEP-1 ([4]; Cbx 25 μM): 13.9931 nM; ATP release, mean (Table S5, Fig. 8c), SK-HEP-1-Cx43 ([5]; Cbx 25 μM): 26.4826 nM
2 | CC[C@H](C)[C@H](NC(=O)[C@H](CCC(=O)O)NC(=O)[C@@H](NC(=O)[C@H](CCC(N)=O)NC(=O)[C@@H](N)CCCCN)[C@@H](C)CC)C(=O)N[C@@H](CCCCN)C(=O)N[C@@H](CCCCN)C(=O)N[C@@H](Cc1ccccc1)C(=O)N[C@@H](CCCCN)C(=O)O [Gap19, H-KQIEIKKFK-OH] (H-KQIEIKKFK-OH) |  |  |  |  |  | IC50 (Cx43 HC; intracellular application via whole-cell recording pipette, read-out: IC50 when applied intracellularly via a whole-cell recording pipette): 7 µM; IC50 (Cx43 HC; [7]): ~50 µM
3 | CC[C@H](C)[C@H](NC(=O)[C@@H](NC(=O)[C@H](Cc1ccccc1)NC(=O)[C@@H](NC(=O)[C@@H](NC(=O)[C@H](CCCCN)NC(=O)[C@H](CCC(=O)O)NC(=O)[C@@H](NC(=O)[C@@H]1CCCN1C(=O)[C@H](CCCNC(=N)N)NC(=O)[C@@H](N)CO)[C@@H](C)O)[C@@H](C)O)[C@@H](C)CC)[C@@H](C)CC)C(=O)O [Gap27] (H-SRPTEKTIFII-OH) | 0.9529 | 40–45% | 9.3690 | 8.5784 | 36.9304 | 
4 | CCCCCCCCCCCCCCCC(=O)N[C@@H](CCCCN)C(=O)N[C@@H](CCC(N)=O)C(=O)N[C@H](C(=O)N[C@@H](CCC(=O)O)C(=O)N[C@H](C(=O)N[C@@H](CCCCN)C(=O)N[C@@H](CCCCN)C(=O)N[C@@H](Cc1ccccc1)C(=O)N[C@@H](CCCCN)C(=O)O)[C@@H](C)CC)[C@@H](C)CC [Palm-Gap19] (Palmitoyl-KQIEIKKFK-OH) |  |  |  |  |  | solubility (physchem): ≥ 100 µM
5 | CC[C@H](C)[C@H](NC(=O)[C@H](CCC(=O)O)NC(=O)[C@@H](NC(=O)[C@H](CCC(N)=O)NC(=O)[C@H](CCCCN)NC(=O)[C@H](CCCNC(=N)N)NC(=O)[C@H](CCCNC(=N)N)NC(=O)[C@H](CCCNC(=N)N)NC(=O)[C@H](CCC(N)=O)NC(=O)[C@H](CCCNC(=N)N)NC(=O)[C@H](CCCNC(=N)N)NC(=O)[C@H](CCCCN)NC(=O)[C@H](CCCCN)NC(=O)[C@H](CCCNC(=N)N)NC(=O)CNC(=O)[C@@H](N)Cc1ccc(O)cc1)[C@@H](C)CC)C(=O)N[C@@H](CCCCN)C(=O)N[C@@H](CCCCN)C(=O)N[C@@H](Cc1ccccc1)C(=O)N[C@@H](CCCCN)C(=O)O [TAT-Gap19] (H-YGRKKRRQRRRKQIEIKKFK-OH) | 1.3701 | 40–45% | 10.9629 | 15.3639 | 55.5511 | IC50 (Cx43 HC; [7]): 7 µM
6 | CC(=O)N[C@@H](CO)C(=O)N[C@@H](CCCNC(=N)N)C(=O)N1CCC[C@H]1C(=O)N[C@@H](CCCNC(=N)N)C(=O)N1C[C@@H]2C[C@H]1C(=O)N[C@@H](CC(=O)O)C(=O)N[C@@H](CC(=O)O)C(=O)N[C@@H](CC(C)C)C(=O)N[C@@H](CCC(=O)O)C(=O)N[C@H](C(N)=O)Cc1cn2nn1 [compound 11] | 1.5371 | 40–45% | 8.7419 | 7.9522 | 38.4712 | 
7 | CRPPR [cardiac endothelium-homing pentapeptide] |  |  |  |  |  | selectivity of targeting the heart (cardiac endothelium): > 300 fold
8 | H-RPRPDDLEI-OH [αCT11] |  |  |  |  |  | time in which the peptide was found to be degraded [6]: 30 min
9 | H-RQPKIWFPNRRKPWKKRPRPDDLEI-OH [αCT1] | 1.6218 | 40–45% | 9.6282 | 6.6804 | 39.5655 | 
10 | Triton X-100 |  |  |  |  |  | ATP release, mean normalized to calcium-free condition (Table S1, Fig. 5a) ([1]; Triton X-100 1%, cell lysis control, N = 3–9): 248.6069%

From article PMC11740094, “Design and synthesis of cyclic lipidated peptides derived from the C-terminus of Cx43 for hemichannel inhibition and cardiac endothelium targeting” (RSC Medicinal Chemistry, 2024)
